34 compounds from patent publication US20170369492A1 (Takeda Pharmaceutical Company Limited, priority 2014, published 2017) can be followed below.

Structures are written as SMILES.

This test addresses T1, human GPR43 (Homo sapiens, UniProt O15552).
T1 construct: expressed in transfected cells
T1 sequence (O15552 1-330): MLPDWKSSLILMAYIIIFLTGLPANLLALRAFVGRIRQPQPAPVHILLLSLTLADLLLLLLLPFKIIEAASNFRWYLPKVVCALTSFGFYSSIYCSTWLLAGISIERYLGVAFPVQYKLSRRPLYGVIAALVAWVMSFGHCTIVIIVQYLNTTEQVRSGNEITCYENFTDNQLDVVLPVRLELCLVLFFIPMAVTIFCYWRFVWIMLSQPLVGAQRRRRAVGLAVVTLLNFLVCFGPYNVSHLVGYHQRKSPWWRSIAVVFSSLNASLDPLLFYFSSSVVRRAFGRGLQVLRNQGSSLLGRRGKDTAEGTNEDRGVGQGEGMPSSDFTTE
As to the kind of experiment: Ca-Flux Functional Assay: Determination of Agonist/Positive Allosteric Modulator (PAM) Activity. It is filed as cell-based. Conditions: CHO-K1 Gα16 cells stably expressing human GPR43; compound added in the presence of EC20 sodium acetate; intracellular Ca2+ by FLIPR; agonist/PAM activity not distinguished. The protocol: Ca-Flux Functional Assay: Determination of Agonist/Positive Allosteric Modulator (PAM) Activity
GPR43 agonist/PAM activity was determined by measuring changes in intracellular calcium levels using a Ca^2+ sensitive fluorescent dye. The changes in fluorescent signal were monitored by FLIPR (manufactured by Molecular Devices). GPR43 mediated increases in intracellular Ca^2+ concentration were readily detected upon activation with sodium acetate. Prior to the assay (24 hours), CHO-K1 Gα16 cells stably expressing human GPR43 were-seeded in cell culture medium in black, clear-bottom 384-well plates (Corning Inc) and grown overnight at 37° C., 5% CO2. On the day of the assay, cell culture media was removed and cells were loaded with Calcium 5 Dye (Molecular Devices) diluted in HBSS containing 25 mM HEPES, 2.5 mM Probenecid, 0.1% BSA for 1 hour at 37° C., 5% CO2. 10 point half log concentration response curves of sodium acetate from 10 mM were conducted prior to the testing of compounds to calculate the sodium acetate concentration that produces 20% of the maximal response (EC20). Test compounds (at to point half log concentration response curves from 10 μM) were added in the presence of sodium acetate to achieve a final concentration that produces approximately 20% maximal response as calculated from the previous experiment. The changes in fluorescent signal were monitored by FLIPR upon addition of the compound/EC20 sodium acetate mix. The EC50 values were determined from ten point concentration response curves. Curves were generated using the average of two wells for each data point.
The above assay detects both GPR43 receptor agonists and positive allosteric modulators of the GPR43 receptor, without distinguishing between the two. Activity in either regard is useful in the treatment of conditions associated with GPR43 receptor activity.
With `Nc1c(S(=O)(=O)N2CCCCC2)c2nccnc2n1C1CCCCC1` [Example 57, 5-cyclohexyl-7-(piperidin-1-ylsulfonyl)-5H-pyrrolo[2,3-b]pyrazin-6-amine], the EC50 was 259 nM.

In the case of `Nc1c(S(=O)(=O)c2ccccc2)c2ncnc(Cl)c2n1C1CCC(F)(F)CC1` [Example 32, 7-(benzenesulfonyl)-4-chloro-5-(4,4-difluorocyclohexyl)-5H-pyrrolo[3,2-d]pyrimidin-6-amine], the EC50 amounted to 689 nM.

As for `Nc1c(S(=O)(=O)NCCc2ccccc2)c2nccnc2n1C1CCCCC1` [Example 84, 6-amino-5-cyclohexyl-N-(2-phenylethyl)-5H-pyrrolo[2,3-b]pyrazine-7-sulfonamide], the EC50 was 3290 nM.

Turning to `Nc1c(S(=O)(=O)c2ccccc2)c2ncccc2n1C1CCCCC1` [Example 9, 3-(benzenesulfonyl)-1-cyclohexyl-1H-[3,2-b]pyridin-2-amine], the EC50 is 1250 nM.

For `COCC1CCN(S(=O)(=O)c2c(N)n(C3CCCCC3)c3nccnc23)C1` (stereo not shown) [Example 88, 5-cyclohexyl-7-[3-(methoxyrnethyl)pyrrolidine-1-sulfonyl]-5H-pyrrolo[2,3-b]pyrazin-6-amine], the EC50 came out at 3150 nM.

On to `Nc1c(S(=O)(=O)N2CCC(c3ccccc3)C2)c2nccnc2n1C1CCCCC1` (stereo not shown) [Example 86, 5-cyclohexyl-7-(3-phenylpyrrolidine-1-sulfonyl)-5H-pyrrolo[2,3-b]pyrazin-6-amine], for which the EC50 was determined as 1720 nM.

Regarding `Nc1c(S(=O)(=O)c2ccccc2)c2nccnc2n1C1CCCCC1` [Example 1, 7-(benzenesulfonyl)-5-cyclohexyl-5H-pyrrolo[2,3-b]pyrazin-6-amine], the EC50 came to 261 nM.

`Nc1c(S(=O)(=O)N2CCC(OCC3CC3)CC2)c2nccnc2n1C1CCCCC1` [Example 107, 5-cyclohexyl-7-[4-(cyclopropylmethoxy)piperidine-1-sulfonyl]-5H-pyrrolo[2,3-b]pyrazin-6-amine]: the EC50 came out at 320 nM.

On to `CCOc1ncnc2c(S(=O)(=O)c3ccccc3)c(N)n(C3CCC(F)(F)CC3)c12` [Example 29, 7-(benzenesulfonyl)-5-(4,4-difluorocyclohexyl)-4-ethoxy-5H-pyrrolo[3,2-d]pyrimidin-6-amine], for which the EC50 amounted to 31 nM.

For the compound `Nc1c(S(=O)(=O)c2ccccc2)c2nccnc2n1C1CCC1` [Example 43, 5-cyclobutyl-7-(phenylsulfonyl)-5H-pyrrolo[2,3-b]pyrazin-6-amine], the EC50 was determined as 6990 nM.

Turning to `CC(C)(C)CCn1c(N)c(S(=O)(=O)c2ccccc2)c2nccnc21` [Example 52, 5-(3,3-dimethylbutyl)-7-(phenylsulfonyl)-5H-pyrrolo[2,3-b]pyrazin-6-amine], the EC50 worked out at 822 nM.

Take `Nc1c(S(=O)(=O)NCCC(F)(F)F)c2nccnc2n1C1CCCCC1` [Example 82, 6-amino-5-cyclohexyl-N-(3,3,3-trifluoropropyl)-5H-pyrrolo[2,3-b]pyrazine-7-sulfonamide]: the EC50 is 821 nM.

For the compound `CN(C1CCCCC1)S(=O)(=O)c1c(N)n(C2CCCCC2)c2nccnc12` [Example 71, 6-amino-N,5-dicyclohexyl-N-methyl-5H-pyrrolo[2,3-b]pyrazine-7-sulfonamide], the EC50 was found to be 8380 nM.

Regarding `CC1CCCN(S(=O)(=O)c2c(N)n(C3CCCCC3)c3nccnc23)C1` (stereo not shown) [Example 102, 5-cyclohexyl-7-(3-methylpiperidine-1-sulfonyl)-5H-pyrrolo[2,3-b]pyrazin-6-amine], the EC50 amounted to 258 nM.

Turning to `COC1CN(S(=O)(=O)c2c(N)n(C3CCCCC3)c3nccnc23)C1` [Example 64, 5-cyclohexyl-7-((3-methoxyazetidin-1-yl)sulfonyl)-5H-pyrrolo[2,3-b]pyrazin-6-amine], the EC50 was determined as 7130 nM.

Regarding `Nc1c(S(=O)(=O)N2C3CCC2CC(O)C3)c2nccnc2n1C1CCCCC1` (stereo not shown) [Example 104, 8-{6-amino-5-cyclohexyl-5H-pyrrolo[2,3-b]pyrazine-7-sulfonyl}-8-azabicyclo[3.2.1]octan-3-ol], the EC50 is 3080 nM.

For the compound `Nc1c(S(=O)(=O)c2ccccc2)c2nccnc2n1[C@@H]1C[C@H]2CC[C@@H]1C2` (relative stereo) [Example 53, 5-((1R*,2R*,4S*)-bicyclo[2.2.1]heptan-2-yl)-7-(phenylsulfonyl)-5H-pyrrolo[2,3-b)pyrazin-6-amine], the EC50 is 275 nM.

Turning to `Nc1c(S(=O)(=O)c2ccc3c(c2)OCCO3)c2nccnc2n1C1CCCCC1` [Example 117, 5-cyclohexyl-7-(2,3-dihydro-1,4-benzodioxine-6-sulfonyl)-5H-pyrrolo[2,3-b]pyrazin-6-amine], the EC50 stood at 124 nM.

As for `COc1ccc(S(=O)(=O)c2c(N)n(C3CCC(F)(F)CC3)c3cccnc23)cc1` [Example 22, 1-(4,4-difluorocyclohexyl)-3-[(4-methoxybenzene)sulfonyl]-1H-pyrrolo[3,2-b]pyridin-2-amine], the EC50 was found to be 167 nM.

As to `Nc1c(S(=O)(=O)C2CCCCC2)c2nccnc2n1C1CCCCC1` [Example 12, 7-(cyclohexanesulfonyl)-5-cyclohexyl-5-pyrrolo[2,3-b]pyrazin-6-amine], the EC50 turned out to be 671 nM.

Turning to `Nc1c(S(=O)(=O)c2ccccc2)c2nccnc2n1C1CCCCC1O` (stereo not shown) [Example 47, 2-(6-amino-7-(phenylsulfonyl)-5H-pyrrolo[2,3-b]pyrazin-5-yl)cyclohexanol], the EC50 was found to be 6490 nM.

Consider `Nc1c(S(=O)(=O)c2ccccc2)c2ncnc(O)c2n1C1CCC(F)(F)CC1` [Example 31, 6-amino-5-(4,4-difluorocyclohexyl)-7-(phenylsulfonyl)-5H-pyrrolo[3,2-d]pyrimidin-4-ol], for which the EC50 was 6940 nM.

Turning to `CCCNS(=O)(=O)c1c(N)n(C2CCCCC2)c2nccnc12` [Example 59, 6-amino-5-cyclohexyl-N-propyl-5H-pyrrolo[2,3-b]pyrazine-7-sulfonamide], the EC50 worked out at 792 nM.

For `Cc1ccc(S(=O)(=O)c2c(N)n(C3CCCCC3)c3nccnc23)cc1` [Example 3], the EC50 stood at 122 nM.

As to `COc1ccc(S(=O)(=O)c2c(N)n(C3CCC(F)(F)CC3)c3nccnc23)cc1` [Example 13, 5-(4,4-difluorocyclohexyl)-7-[(4-methoxybenzene)sulfonyl]-5H-pyrrolo[2,3-b]pyrazin-6-amine], the EC50 was 129 nM.

For `CC1(C)CCN(S(=O)(=O)c2c(N)n(C3CCCCC3)c3nccnc23)C1` [Example 75, 5-cyclohexyl-7-(3,3-dimethylpyrrrolidine-1-sulfonyl)-5H-pyrrolo[2,3-b]pyrazin-6-amine], the EC50 is 1190 nM.

Consider `Nc1c(S(=O)(=O)c2ccccc2)c2ncnc(OCc3ccccc3)c2n1C1CCC(F)(F)CC1` [Example 30, 7-(benzenesulfonyl)-4-(benzyloxy)-5-(4,4-difluorocyclohexyl)-5H-pyrrolo[3,2-d]pyrimidin-6-amine], for which the EC50 came out at 199 nM.

As for `Nc1c(S(=O)(=O)C2CC2)c2nccnc2n1C1CCCCC1` [Example 109, 5-cyclohexyl-7-(cyclopropanesulfonyl)-5H-pyrrolo[2,3-b]pyrazin-6-amine], the EC50 stood at 2900 nM.

With `CC1(C)CCN(S(=O)(=O)c2c(N)n(C3CCCCC3)c3nccnc23)CC1` [Example 66, 5-cyclohexyl-7-((4,4-dimethylpiperidin-1-yl)sulfonyl)-5H-pyrrolo[2,3-b]pyrazin-6-amine], the concentration for a half-maximal effect (EC50) was 327 nM.

For `CN1CCN(S(=O)(=O)c2c(N)n(C3CCCCC3)c3nccnc23)CC1` [Example 63, 5-cyclohexyl-7-((4-methylpiperazin-1-yl)sulfonyl)-5H-pyrrolo[2,3-b]pyrazin-6-amine], the EC50 came out at 7950 nM.

Consider `CC1CCCCC1n1c(N)c(S(=O)(=O)c2ccccc2)c2nccnc21` (mixture of isomers) [Example 44, 5-(2-methylcyclohexyl)-7-(phenylsulfonyl)-5H-pyrrolo[2,3-b]pyrazin-6-amine], for which the EC50 stood at 1080 nM.

For `Nc1c(S(=O)(=O)N2Cc3ccccc3C2)c2nccnc2n1C1CCCCC1` [Example 97, 5-cyclohexyl-7-(2,3-dihydro-1H-isoindole-2-sulfonyl)-5H-pyrrolo[2,3-b]pyrazin-6-amine], the EC50 was found to be 173 nM.

As to `COCCNS(=O)(=O)c1c(N)n(C2CCCCC2)c2nccnc12` [Example 90, 6-amino-5-cyclohexyl-N-(2-methoxyethyl)-5H-pyrrolo[2,3-b]pyrazine-7-sulfonamide], the EC50 was 6180 nM.

As for `Nc1c(S(=O)(=O)N2CCC(Oc3ccccc3)CC2)c2nccnc2n1C1CCCCC1` [Example 85, 5-cyclohexyl-7-(4-phenoxypiperidine-1-sulfonyl)-5H-pyrrolo[2,3-b]pyrazin-6-amine], the EC50 is 1060 nM.
